Results as given in ChEMBL document CHEMBL5528066, “Discovery of Novel N-(Anthracen-9-ylmethyl) Benzamide Derivatives as ZNF207 Inhibitors Promising in Treating Glioma” (J Med Chem, 2024).
Calls of active or inactive are those of the source. No cut-off for these calls is given here.

What was measured:
[1] = Toxicity in female C57BL/6 mouse assessed as change in cellular structure of stomach at 45 mg/kg, po administered once a day for 2 weeks by H and E staining based analysis; assay type: organism-based; conditions: in vivo, 336 h
[2] = tested on: LN-229-Luc; assay: Antitumor activity against human Ln-229-Luc cells xenografted in po dosed BALB/c nude mouse administered once a day and measured after 3 to 31 days; assay type: functional, organism-based; conditions: dose 15-45 mg/kg, time 3-31 day
[3] = tested on: LN-229; assay: Inhibition of sphere formation in human LN-229 cells at 4 uM measured after 10 days in well containing 100 cells by microscopic analysis; assay type: functional, cell-based; conditions: time 10.0 day
[4] = tested on: LN-229; assay: Inhibition of sphere formation in human LN-229 cells at 1 uM measured after 10 days in well containing 10000 cells by microscopic analysis; assay type: functional, cell-based; conditions: time 10.0 day
[5] = tested on: NCI-H460; assay: Antiproliferative activity against human NCI-H460 cells assessed as inhibition of cell growth incubated for 72 hrs by CCK-8 assay; assay type: functional, cell-based; conditions: NCI-H460, 72 h
[6] = tested on: LN-229; assay: Inhibition of colony formation in human LN-229 cells assessed as reduction in colony area at 2.5 uM treated on day 1 and measured after 14 days by crystal violet staining based microscopic analysis relative to control; assay type: functional; conditions: LN-229, 336 h, time 14 day
[7] = Toxicity in female C57BL/6 mouse assessed as change in cellular structure of brain at 45 mg/kg, po administered once a day for 2 weeks by H and E staining based analysis; assay type: organism-based; conditions: in vivo, 336 h
[8] = tested on: LN-229; assay: Inhibition of sphere formation in human LN-229 cells assessed as fold reduction in sphere initiating frequency at 2 uM incubated for 10 days by microscopic analysis relative to control; assay type: functional; conditions: time 10 day
[9] = tested on: LN-229; assay: Inhibition of sphere formation in human LN-229 cells at 4 uM measured after 10 days in well containing 10000 cells by microscopic analysis; assay type: functional, cell-based; conditions: time 10.0 day
[10] = tested on: H4; assay: Inhibition of sphere formation in human H4 cells at 2 uM measured after 10 days in well containing 1 cells by microscopic analysis; assay type: functional, cell-based; conditions: time 10.0 day
[11] = Toxicity in male C57BL/6 mouse assessed as change in cellular structure of heart at 45 mg/kg, po administered once a day for 2 weeks by H and E staining based analysis; assay type: organism-based; conditions: in vivo, 336 h
[12] = Toxicity in male C57BL/6 mouse assessed as change in cellular structure of brain at 45 mg/kg, po administered once a day for 2 weeks by H and E staining based analysis; assay type: organism-based; conditions: in vivo, 336 h
[13] = Drug concentration in female Sprague-Dawley rat lung at 45 mg/kg, po measured after 8 hrs by LC-MS/MS analysis; assay type: ADME, organism-based; conditions: read-out: Ct
[14] = tested on: U-937; assay: Antiproliferative activity against human U-937 cells assessed as inhibition of cell growth incubated for 72 hrs by CCK-8 assay; assay type: functional, cell-based; conditions: U-937, 72 h
[15] = tested on: H4; assay: Downregulation of SOX2 protein expression in human H4 cells at 2 to 4 uM incubated for 48 hrs by Western blot analysis; assay type: functional, cell-based; conditions: dose 2-4 µM
[16] = tested on: H4; assay: Inhibition of sphere formation in human H4 cells assessed as fold reduction in sphere initiating frequency at 1 uM incubated for 10 days by microscopic analysis relative to control; assay type: functional; conditions: time 10 day
[17] = tested on: LN-229; assay: Inhibition of sphere formation in human LN-229 cells at 8 uM measured after 10 days in well containing 1 cells by microscopic analysis; assay type: functional, cell-based; conditions: time 10.0 day
[18] = tested on: LN-229; assay: Antiproliferative activity against human LN-229 cells assessed as inhibition of cell growth measured after 72 hrs by CCK-8 assay; assay type: functional, cell-based; conditions: LN-229, 72 h
[19] = biological target: BUB3-interacting and GLEBS motif-containing protein ZNF207 (Homo sapiens, UniProt O43670); assay: Binding affinity to ZNF207 in human H4 cells assessed as thermal stabilization by measuring increase in melting temperature at 30 uM incubated for 3 hrs by CETSA; assay type: cell-based
Sequence of BUB3-interacting and GLEBS motif-containing protein ZNF207 (O43670 whole entry): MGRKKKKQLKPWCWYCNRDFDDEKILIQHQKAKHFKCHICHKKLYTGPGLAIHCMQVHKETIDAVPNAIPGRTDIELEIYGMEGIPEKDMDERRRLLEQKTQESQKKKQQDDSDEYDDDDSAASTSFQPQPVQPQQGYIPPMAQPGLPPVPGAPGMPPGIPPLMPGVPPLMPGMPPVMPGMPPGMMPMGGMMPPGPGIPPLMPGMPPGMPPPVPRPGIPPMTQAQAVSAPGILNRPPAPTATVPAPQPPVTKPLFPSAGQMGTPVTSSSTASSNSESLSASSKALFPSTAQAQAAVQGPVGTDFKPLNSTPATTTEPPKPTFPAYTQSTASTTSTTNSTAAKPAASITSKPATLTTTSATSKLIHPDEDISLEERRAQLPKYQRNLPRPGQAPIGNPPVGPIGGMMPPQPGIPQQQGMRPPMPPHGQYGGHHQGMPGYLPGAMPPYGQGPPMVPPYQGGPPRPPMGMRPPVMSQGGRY

[20] = tested on: LN-229; assay: Inhibition of sphere formation in human LN-229 cells at 2 uM measured after 10 days in well containing 10 cells by microscopic analysis; assay type: functional, cell-based; conditions: time 10.0 day
[21] = tested on: H4; assay: Inhibition of sphere formation in human H4 cells at 4 uM measured after 10 days in well containing 10000 cells by microscopic analysis; assay type: functional, cell-based; conditions: time 10.0 day
[22] = tested on: Hs 683; assay: Inhibition of sphere formation in human Hs 683 cells at 4 uM measured after 10 days in well containing 10000 cells by microscopic analysis; assay type: functional, cell-based; conditions: time 10.0 day
[23] = tested on: LN-229; assay: Inhibition of sphere formation in human LN-229 cells at 8 uM measured after 10 days in well containing 100 cells by microscopic analysis; assay type: functional, cell-based; conditions: time 10.0 day
[24] = tested on: U-251; assay: Inhibition of sphere formation in human U-251MG cells at 1 uM measured after 10 days in well containing 1000 cells by microscopic analysis; assay type: functional, cell-based; conditions: time 10.0 day
[25] = tested on: LN-229; assay: Inhibition of sphere formation in human LN-229 cells incubated for 168 hrs by microscopic analysis; assay type: functional, cell-based; conditions: LN-229, 168 h
[26] = tested on: H4; assay: Inhibition of colony formation in human H4 cells assessed as reduction in number of cell clones treated on day 1 and measured after 14 days by crystal violet staining based microscopic analysis; assay type: functional; conditions: dose 0.625-5 µM, time 14.0 day
[27] = Drug concentration in male Sprague-Dawley rat brain at 45 mg/kg, po measured after 8 hrs by LC-MS/MS analysis; assay type: ADME, organism-based; conditions: read-out: Ct
[28] = tested on: U-251; assay: Inhibition of sphere formation in human U-251MG cells assessed as fold reduction in sphere initiating frequency at 2 uM incubated for 10 days by microscopic analysis relative to control; assay type: functional; conditions: time 10 day
[29] = Drug concentration in female Sprague-Dawley rat brain at 45 mg/kg, po measured after 8 hrs by LC-MS/MS analysis; assay type: ADME, organism-based; conditions: read-out: Ct
[30] = tested on: Hs 683; assay: Inhibition of sphere formation in human Hs 683 cells assessed as fold reduction in sphere initiating frequency at 4 uM incubated for 10 days by microscopic analysis relative to control; assay type: functional; conditions: time 10 day
[31] = Drug concentration in female Sprague-Dawley rat liver at 45 mg/kg, po measured after 8 hrs by LC-MS/MS analysis; assay type: ADME, organism-based; conditions: read-out: Ct
[32] = tested on: Hs 683; assay: Inhibition of sphere formation in human Hs 683 cells assessed as fold reduction in sphere initiating frequency at 8 uM incubated for 10 days by microscopic analysis relative to control; assay type: functional; conditions: time 10 day
[33] = tested on: Hs 683; assay: Inhibition of sphere formation in human Hs 683 cells at 2 uM measured after 10 days in well containing 1 cells by microscopic analysis; assay type: functional, cell-based; conditions: time 10.0 day
[34] = tested on: AGS; assay: Antiproliferative activity against human AGS cells assessed as inhibition of cell growth incubated for 72 hrs by CCK-8 assay; assay type: functional, cell-based
[35] = tested on: U-251; assay: Antiproliferative activity against human U-251MG cells assessed as inhibition of cell growth measured after 72 hrs by CCK-8 assay; assay type: functional, cell-based; conditions: U-251, 72 h
[36] = tested on: A549; assay: Antiproliferative activity against human A549 cells assessed as inhibition of cell growth incubated for 72 hrs by CCK-8 assay; assay type: functional, cell-based; conditions: A549, 72 h
[37] = tested on: U-251; assay: Inhibition of sphere formation in human U-251MG cells at 8 uM measured after 10 days in well containing 10000 cells by microscopic analysis; assay type: functional, cell-based; conditions: time 10.0 day
[38] = Toxicity in male C57BL/6 mouse assessed as change in cellular structure of kidney at 45 mg/kg, po administered once a day for 2 weeks by H and E staining based analysis; assay type: organism-based; conditions: in vivo, 336 h
[39] = tested on: U-251; assay: Induction of apoptosis in human U-251MG cells assessed as apoptotic cells at 2.5 uM incubated for 24 hrs by Annexin V-FITC/PI staining based flow cytometry analysis relative to control; assay type: functional

SMILES: N#CC1(C(=O)NCCC2CCN(Cc3ccccc3)CC2)CC2(Br)c3ccccc3C1c1ccccc12 (racemic)
- Activity [1]: Non-Toxic
- Activity [2]: Dose-Dependent Effect
- inhibition [3]: Active
- inhibition [4]: inactive
- IC50 [5]: 15.6 µM
- inhibition at 2.5 µM [6]: 100%
- Activity [7]: Non-Toxic
- fold change (FC) [8]: 22.43
- inhibition [9]: inactive
- inhibition [10]: Active
- Activity [11]: Non-Toxic
- Activity [12]: Non-Toxic
- concentration at 8 h [13]: 6360 ng/g
- IC50 [14]: 14 µM
- Activity [15]: Active
- fold change (FC) [16]: 14.09
- inhibition [17]: Active
- IC50 [18]: 4.99 µM
- ΔTm [19]: 1.9 °C
- inhibition [20]: Active
- inhibition [21]: inactive
- inhibition [22]: inactive
- inhibition [23]: Active
- inhibition [24]: inactive
- IC50 [25]: 1.23 µM
- inhibition [26]: Dose-Dependent Effect
- concentration at 8 h [27]: 9.2 ng/g
- fold change (FC) [28]: 35.63
- concentration at 8 h [29]: 56.1 ng/g
- fold change (FC) [30]: 39.23
- concentration at 8 h [31]: 1400 ng/g
- fold change (FC) [32]: 104.96
- inhibition [33]: Active
- IC50 [34]: 9.42 µM
- IC50 [35]: 13.1 µM
- IC50 [36]: 9.68 µM
- inhibition [37]: inactive
- Activity [38]: Non-Toxic
- Activity [39]: ~20%
